Reference: the NIST ThermoML archive (doi:10.1021/je0498661)
± gives the expanded uncertainty stated by the source.

Conditions: 101.33 kPa, Liquid, Hot wire method

| SMILES | thermal conductivity (273.15 K) | thermal conductivity (293.15 K) | thermal conductivity (313.15 K) | thermal conductivity (333.15 K) | thermal conductivity (288.15 K) | thermal conductivity (303.15 K) | thermal conductivity (318.15 K) |
| --- | --- | --- | --- | --- | --- | --- | --- |
| CCSCC [3-thiapentane] | 0.145 ± 0.003 W/m/K | 0.14 ± 0.003 W/m/K | 0.137 ± 0.003 W/m/K | 0.13 ± 0.003 W/m/K |  |  |  |
| CN(C)CCN(C)C [N,N,N',N'-tetramethyl-1,2-diaminoethane] | 0.154 ± 0.003 W/m/K | 0.15 ± 0.003 W/m/K | 0.144 ± 0.003 W/m/K | 0.135 ± 0.003 W/m/K |  |  |  |
| CC#N [acetonitrile] | 0.207 ± 0.004 W/m/K | 0.195 ± 0.004 W/m/K | 0.183 ± 0.004 W/m/K |  |  |  |  |
| C1CCCNCC1 [azacycloheptane] | 0.141 ± 0.003 W/m/K | 0.137 ± 0.003 W/m/K | 0.131 ± 0.003 W/m/K | 0.126 ± 0.003 W/m/K |  |  |  |
| C1CCSC1 [tetrahydrothiophene] | 0.12 ± 0.003 W/m/K |  |  | 0.11 ± 0.002 W/m/K | 0.117 ± 0.002 W/m/K | 0.115 ± 0.002 W/m/K | 0.112 ± 0.002 W/m/K |
